From patent US7399761B2, “Phthalazine derivatives with angiogenesis inhibiting activity” (Novartis AG, priority 2001, dated 2008)

Legend:
Cyp2C9 = target: T1, Cyp2C9 (Homo sapiens, UniProt P11712); assay: CyP450-Inhibition, recombinant Cytochrome P450 isoenzymes, fluorometric assay; format: in vitro ADME; conditions: for IC50: recombinant CyP 450 enzyme, fluorescence-labelled substrate
T1 construct: host or cells: insect cells (named in the general description as the expression system for P450 cDNAs)
Text: (§1) This can be shown according to the following test system: Human liver microsomes or high level expression of cDNAs encoding Cytochrome P450 in insect cells provide a flexible source of materials for several in vitro measurement methods. A microtiter plate-based, direct fluorometric assay for the activities of any one or more of the principal drug metabolizing enzymes CYP1A2, CYP2C8, CYP2C9, CYP2C19, CYP2D6 and/or CYP3A4 is used in order to assess the potential for drug candidates to inhibit cytochrome P450.
(§2) Fluorescent marker substrates are incubated at concentrations close to their Michaelis-Men-ten affinity constant, Km. Inhibitors are tested in the 1 to 10 μM concentration range. 50% inhibition concentration (IC50 values) are estimated by non-linear regression of a two parameter model equation where the lower data limit is 0, i.e. the data are background corrected, and the upper data limit is 100, i.e. the data are range corrected. The equation assumes that y falls with increasing x. […] Extrapolation or interpolation of IC50 values beyond the concentration range studied are not provided.
(§3) Details for the assays and the technology that forms the basis for the assays are known (see C. L. Crespi et al., Analytical Biochemistry 248, 188-190 (1997), and CIL. Crespi et al., J. Pharmacol. Toxicol. Methods 44, 325-331 (2000), and the references mentioend therein). For example, 3-cyano-7-ethoxycoumarin is used as fluorescent substrate for CyP1A2, CYP2C9, CYP2C19 and CYP2D6, 7-methoxy-4-trifluoromethylcoumarin is used for CYP2C9, resorufin benzyl ether for CYP3A4, 3-82-(N,N-diethyl-N-methylammonium)ethyl]-7-methoxy-4-methylcoumarin for CYP2D6.
(§4) By the help of recombinant CyP 450 enzymes, the corresponding IC50 values for the compounds of formula I are determined. […] Description of the Assay: Fluorescence-labelled substrate compounds are incubated with different concentrations of test compound of formula I with recombinant Cytochrome P450 Isoenzymes. […] For details see above in the general description.

Cyp2C8 = target: T2, Cyp2C8 (Homo sapiens, UniProt P10632); assay: as above; format: in vitro ADME; conditions: for IC50: recombinant CyP 450 enzyme, fluorescence-labelled substrate
T2 construct: host or cells: insect cells (named in the general description as the expression system for P450 cDNAs)
T2 sequence (P10632 1-490): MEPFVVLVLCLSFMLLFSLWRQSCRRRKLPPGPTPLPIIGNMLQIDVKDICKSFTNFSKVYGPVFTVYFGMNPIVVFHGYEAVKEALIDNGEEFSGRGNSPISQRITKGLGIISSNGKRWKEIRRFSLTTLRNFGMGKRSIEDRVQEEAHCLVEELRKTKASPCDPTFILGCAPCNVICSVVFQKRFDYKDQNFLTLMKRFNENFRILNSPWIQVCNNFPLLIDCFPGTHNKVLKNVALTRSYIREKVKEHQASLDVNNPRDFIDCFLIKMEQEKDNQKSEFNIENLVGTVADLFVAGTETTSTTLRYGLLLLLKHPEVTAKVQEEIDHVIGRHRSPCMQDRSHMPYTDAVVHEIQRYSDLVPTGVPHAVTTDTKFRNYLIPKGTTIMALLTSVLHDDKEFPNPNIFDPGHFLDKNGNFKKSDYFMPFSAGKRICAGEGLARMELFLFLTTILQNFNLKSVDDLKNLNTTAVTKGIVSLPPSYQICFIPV
Text: as §1, §2, §3, §4

Cyp3A4 = target: T3, Cyp3A4 (Homo sapiens, UniProt P08684); assay: as above; format: in vitro ADME; conditions: for IC50: recombinant CyP 450 enzyme, fluorescence-labelled substrate
T3 construct: host or cells: insect cells (named in the general description as the expression system for P450 cDNAs)
Text: as §1, §2, §3, §4

[1] = target: T4, Flt-1 VEGF-receptor tyrosine kinase (Homo sapiens, UniProt P17948); assay: Test for activity against Flt-1 VEGF-receptor tyrosine kinase; format: biochemical; conditions: kinase domain of Flt-1, poly(Glu,Tyr) 4:1, 8 μM [33P]-ATP, 15 minutes at room temperature
T4 construct: 10 ng of the kinase domain of Flt-1
T4 sequence (P17948 827-1158 limits assumed): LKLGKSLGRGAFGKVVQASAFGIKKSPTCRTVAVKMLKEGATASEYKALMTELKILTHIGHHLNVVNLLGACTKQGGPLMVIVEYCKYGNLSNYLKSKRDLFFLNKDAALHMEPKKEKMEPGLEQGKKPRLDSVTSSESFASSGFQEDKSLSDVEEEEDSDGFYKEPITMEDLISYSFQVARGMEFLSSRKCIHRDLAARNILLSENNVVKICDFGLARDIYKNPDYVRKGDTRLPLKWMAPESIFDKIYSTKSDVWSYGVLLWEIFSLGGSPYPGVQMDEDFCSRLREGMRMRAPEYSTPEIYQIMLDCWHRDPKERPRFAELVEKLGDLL
Method: Test for activity against VEGF-receptor tyrosine kinase: the test is conducted using Flt-1 VEGF-receptor tyrosine kinase. The detailed procedure is as follows: 30 μl kinase solution (10 ng of the kinase domain of Flt-1, Shibuya et al., Oncogene 5, 519-24 [1990]) in 20 mM Tris.HCl pH 7.6, 3 mM manganese dichloride (MnCl2), 3 mM magnesium chloride (MgCl2) and 3 μg/ml poly(Glu,Tyr) 4:1 (Sigma, Buchs, Switzerland), 8 μM [^33P]-ATP (0.2 μCi/batch), 1% dimethyl sulfoxide, and 0 to 50 μM of the compound to be tested are incubated together for 15 minutes at room temperature. The reaction is then ended by the addition of 10 μl 0.25 M ethylenediaminetetraacetate (EDTA) pH 7. Using a multichannel dispenser (LAB SYSTEMS, USA), an aliquot of 20 μl is applied to a PVDF (=polyvinyl difluoride) Immobilon P membrane (Millipore, USA), which is incorporated into a Millipore microtitre filter manifold, and connected to a vacuum. Following complete elimination of the liquid, the membrane is washed 4 times successively in a bath containing 0.5% phosphoric acid (H3PO4), incubated for 10 minutes each time while shaking, then mounted in a Hewlett Packard TopCount Manifold and the radioactivity measured after the addition of 10 μl Microscint® (β-scintillation counter liquid; Packard USA). […]
The IC50 values determined are given below, insofar as they have been accurately determined: […]

T3 sequence (P08684 whole entry): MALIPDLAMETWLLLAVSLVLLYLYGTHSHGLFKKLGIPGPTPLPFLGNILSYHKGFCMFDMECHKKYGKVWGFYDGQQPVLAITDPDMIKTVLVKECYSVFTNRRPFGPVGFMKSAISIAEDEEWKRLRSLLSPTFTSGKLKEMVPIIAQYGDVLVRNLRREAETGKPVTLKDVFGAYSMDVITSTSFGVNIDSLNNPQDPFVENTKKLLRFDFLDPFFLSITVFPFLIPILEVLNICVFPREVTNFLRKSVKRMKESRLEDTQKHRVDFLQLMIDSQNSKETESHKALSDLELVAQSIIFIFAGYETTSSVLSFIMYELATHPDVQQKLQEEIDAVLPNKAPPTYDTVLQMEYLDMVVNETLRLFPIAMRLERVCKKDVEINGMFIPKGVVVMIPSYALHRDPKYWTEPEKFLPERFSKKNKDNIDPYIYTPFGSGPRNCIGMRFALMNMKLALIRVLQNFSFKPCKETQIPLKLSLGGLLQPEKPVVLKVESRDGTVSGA
T1 sequence (P11712 whole entry): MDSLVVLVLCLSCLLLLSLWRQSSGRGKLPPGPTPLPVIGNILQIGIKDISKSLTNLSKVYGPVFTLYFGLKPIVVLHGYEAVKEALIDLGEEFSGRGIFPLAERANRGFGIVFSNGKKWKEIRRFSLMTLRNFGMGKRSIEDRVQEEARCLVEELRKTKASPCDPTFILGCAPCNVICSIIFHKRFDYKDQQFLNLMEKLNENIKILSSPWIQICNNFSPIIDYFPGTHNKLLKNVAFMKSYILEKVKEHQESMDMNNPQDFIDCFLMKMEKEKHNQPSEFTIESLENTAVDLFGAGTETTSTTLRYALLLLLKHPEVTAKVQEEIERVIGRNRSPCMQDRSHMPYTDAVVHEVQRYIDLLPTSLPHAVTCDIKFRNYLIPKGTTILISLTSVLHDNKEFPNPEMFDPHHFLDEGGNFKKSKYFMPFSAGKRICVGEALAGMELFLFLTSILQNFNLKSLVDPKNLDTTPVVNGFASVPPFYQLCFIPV

Row | SMILES | IC50 (Cyp2C9) [µM] | IC50 (Cyp2C8) [µM] | IC50 (Cyp3A4) [µM] | IC50 [1] [µM] | other results
1 | COc1cc(Cc2nnc(N[C@H]3CC[C@H](C(C)C)CC3)c3ccccc23)ccn1 [Example 1 d)] | – | – | – | 1.2 | –
2 | CC(C)[C@H]1CC[C@H](Nc2nnc(Cc3ccnc(O)c3)c3ccccc23)CC1 [Example 1, trans 1-(4-Isopropyl-cyclohexylamino)4-[2-hydroxy-(pyridin-4-yl)methyl]-phthalazine] | – | – | – | – | melting point: 266 to 267 °C (dec.)
3 | CCc1ccc(Nc2nnc(Cc3ccncc3)c3ccccc23)cc1Br [WO 00/59509 (Ex. 14 q), reference compound] | < 1 | 5 | < 1 | – | –

Second part, led by results:

Row | IC50 (Cyp2C9) [µM] | IC50 (Cyp2C8) [µM] | IC50 (Cyp3A4) [µM] | IC50 [1] [µM] | SMILES | other results
4 | 3.5 | > 10 | 2.8 | – | CCc1ccc(Nc2nnc(Cc3ccc(=O)[nH]c3)c3ccccc23)cc1Br [Ex. 8] | lower inhibition when compared with Ex. 14 q from WO 00/59509 (Cyp2C9; ratio of IC50 values): more than two-fold; lower inhibition when compared with Ex. 14 q from WO 00/59509 (Cyp2C8; ratio of IC50 values): more than two-fold; lower inhibition when compared with Ex. 14 q from WO 00/59509 (Cyp3A4; ratio of IC50 values): more than two-fold
5 | – | – | – | 1.9 | CCc1ccc(Nc2nnc(Cc3ccnc(OC)c3)c3ccccc23)cc1Br [Example 2 d), 1-(3-Bromo-4ethyl-anilino)-4-[2-methoxy-(pyridin-4-yl)-methyl]-phthalazine] | –
